The results in this text go back to EP1144368B1, “ACETYLENIC ALPHA-AMINO ACID-BASED SULFONAMIDE HYDROXAMIC ACID TACE INHIBITORS” (priority 1999, dated 2000).

For orientation: inhibition means the drop in the measured response relative to a control, in per cent.

For the assay, the system named is THP-1 cells. The assay is described as follows: THP-1 Soluble Protein Assay (LPS-stimulated; ELISA of TNF-a, TNF-R p75/80, TNF-R p55/60, IL-8). It counts as cell-based, human. The conditions noted are these: Homo sapiens, THP-1, read-out: THP % inhibition @ 3 µM, 3 µM. Background: An ELISA detects its analyte on a solid surface through an enzyme-linked reagent.
In the case of `CC#CCOc1ccc(S(=O)(=O)N[C@@H](C(=O)NO)c2ccc(OCCNC(=O)OC(C)(C)C)cc2)cc1` [Example 199, tert-Butyl 2-{4-[(1R)-1-({[4-(2-butynyloxy)phenyl]sulfonyl}amino)-2-(hydroxyamino)-2-oxoethyl]phenoxy}ethylcarbamate], the inhibition at 3 µM was found to be 84%. In the case of `CC#CCOc1ccc(S(=O)(=O)N[C@@H](C(=O)NO)c2ccc(OCCN)cc2)cc1` [Example 200, (2R)-2-[4-(2-Aminoethoxy)phenyl]-2-({[4-(2-butynyloxy)phenyl]sulfonyl}amino)-N-hydroxyethanamide], the inhibition at 3 µM is 78%. Consider `CC#CCOc1ccc(S(=O)(=O)N[C@@H](C(=O)NO)c2ccc(OCCNC(C)=O)cc2)cc1` [Example 201, (2R)-2-{4-[2-(Acetylamino)ethoxy]phenyl}-2-({[4-(2-butynyloxy)phenyl]sulfonyl}amino)-N-hydroxyethanamide], for which the inhibition at 3 µM was 77%. Under `CC#CCOc1ccc(S(=O)(=O)NC(C(=O)NO)c2ccc(OCCN3CCN(C(=O)OC(C)(C)C)CC3)cc2)cc1` (stereo not drawn) [Example 202, tert-Butyl 4-(2-{4-[1-({[4-(2-butynyloxy)phenyl]sulfonyl}amino)-2-(hydroxyamino)-2-oxoethyl)phenoxy]ethyl)-1-piperazinecarboxylate] stands 45%. Regarding `CC#CCOc1ccc(S(=O)(=O)NC(C(=O)NO)c2ccc(OCCN(C)C(=O)OC(C)(C)C)cc2)cc1` (stereo not drawn) [Example 203, tert-Butyl 4-(2-{4-[1-({[4-{2-butynyloxy)phenyl]sulfonyl}amino)-2-(hydroxyamino)-2-oxoethyl)phenoxy]ethyl)-(methyl)carbamate], the inhibition at 3 µM amounted to 73%. To `CC#CCOc1ccc(S(=O)(=O)NC(C(=O)NO)c2ccc(OCCN3CCCC3)cc2)cc1` (stereo not drawn) [Example 205, 2-({[4-(2-Butynyloxy)phenyl]sulfonyl}amino)-N-hydroxy-2-{4-[2-(1-pyrrolidinyl)ethoxy]phenyl}acetamide] belongs 66%. In the case of `CC#CCOc1ccc(S(=O)(=O)NC(C(=O)NO)c2ccc(OCCN3CCOCC3)cc2)cc1` (stereo not drawn) [Example 206, 2-({[4-(2-Butynyloxy)phenyl]sulfonyl}amino)-N-hydroxy-2-{4-[2-(4-morpholinyl)ethoxy]phenyl}acetamide], the inhibition at 3 µM was found to be 70%. Take `CC#CCOc1ccc(S(=O)(=O)NC(C(=O)NO)c2ccc(OCCN(C)C)cc2)cc1` (stereo not drawn) [Example 207, 2-({[4-(2-Butynyloxy)phenyl]sulfonyl}amino){4-[2-(dimethylamino)ethoxy]phenyl}-N-hydroxyacetamide]: the inhibition at 3 µM came to 51%. Turning to `CC#CCOc1ccc(S(=O)(=O)NC(C(=O)NO)c2ccc(OCCc3scnc3C)cc2)cc1` (stereo not drawn) [Example 208, 2-({[4-(2-Butynyloxy)phenyl]sulfonyl}amino)-N-hydroxy-2-{4-[2-(4-methyl-1,3-thiazol-5-yl)ethoxy]phenyl}acetamide], the inhibition at 3 µM came to 74%. Turning to `CC#CCOc1ccc(S(=O)(=O)NC(C(=O)NO)c2ccc(OCCOCCOCCOC)cc2)cc1` (stereo not drawn) [Example 209, 2-({[4-(2-Butynyloxy)phenyl]sulfonyl}amino)-N-hydroxy-2-(4-{2-[2-(2-methoxyethoxy)ethoxy]ethoxy}phenyl)acetamide], the inhibition at 3 µM was determined as 75%. As for `CC#CCOc1ccc(S(=O)(=O)N(C)C(C(=O)NO)c2ccc(Cl)cc2)cc1` (stereo not drawn) [Example 212, 2-[{[4-(2-Butynyloxy)phenyl]sulfonyl}(methyl)amino]-2-(4-chlorophenyl)-N-hydroxyacetamide], the inhibition at 3 µM amounted to 86%.

`CC#CCOc1ccc(S(=O)(=O)N(C)C(CCCSc2ccc(Cl)cc2)C(=O)NO)cc1` (stereo not drawn) [Example 213, 2-[{[4-(2-Butynyloxy)phenyl]sulfonyl}(methyl)amino]-5-[(4-chlorophenyl)sulfanyl]-N-hydroxypentanamide]: the inhibition at 3 µM came out at 87%. With `CC#CCOc1ccc(S(=O)(=O)N2CCNCC2C(=O)NO)cc1` (stereo not drawn) [Example 214, 1-(4-But-2-ynyloxy-benzenesulfonyl)-piperazine-2-carboxylic acidhydroxyamide], the inhibition at 3 µM came out at 71%.

Turning to `CC#CCOc1ccc(S(=O)(=O)N2CCN(C(=O)N3CCOCC3)CC2C(=O)NO)cc1` (stereo not drawn) [Example 215, 1-(4-But-2-ynyloxy-benzenesulfonyl)-4-(morpholine-4-carbonyl)-piperazine-2-carboxylic acid hydroxyamide], the inhibition at 3 µM amounted to 51%. For the compound `CC#CCOc1ccc(S(=O)(=O)N2CCN(C(=O)N(CC)CC)CC2C(=O)NO)cc1` (stereo not drawn) [Example 216, 4-(4-But-2-ynyloxy-benzenesulfonyl)-piperazine-1,3-dicarboxylic acid 1-diethylamide 3-hydroxyamide], the inhibition at 3 µM was 59%. For `CC#CCOc1ccc(S(=O)(=O)N2CCN(C(=O)N3CCCC3)CC2C(=O)NO)cc1` (stereo not drawn) [Example 217, 1-(4-But-2-ynyloxy-benzenesulfonyl)-4-(pyrrolidine-1-carbonyl)-piperazine-2-carboxylic acid hydroxyamide], the inhibition at 3 µM stood at 73%. As to `CC#CCOc1ccc(S(=O)(=O)N2CCN(C(=O)N(C(C)C)C(C)C)CC2C(=O)NO)cc1` (stereo not drawn) [Example 218, 4-(4-But-2-ynyloxy-benzenesulfonyl)-piperazine-1,3-dicarboxylic acid 1-diisopropylamide 3-hydroxyamide], the inhibition at 3 µM stood at 56%. Consider `CC#CCOc1ccc(S(=O)(=O)N2CCN(C(=O)OCc3ccccc3)CC2C(=O)NO)cc1` (stereo not drawn) [Example 219, Benzyl 4-{[4-(2-butynyloxy)phenyl]sulfonyl}-3-[(hydroxyamino)carbonyl]-1-piperazinecarboxylate], for which the inhibition at 3 µM came out at 87%. Consider `CC#CCOc1ccc(S(=O)(=O)N2CCN(C(=O)N(C)c3ccccc3)CC2C(=O)NO)cc1` (stereo not drawn) [Example 220, 4-(4-But-2-ynyloxy-benzenesulfonyl)-piperazine-1,3-dicarboxylic acid 3-hydroxyamide 1-(methyl-phenyl-amide)], for which the inhibition at 3 µM amounted to 60%. Regarding `CC#CCOc1ccc(S(=O)(=O)N2CCN(C(=O)Nc3ccc(OC)cc3)CC2C(=O)NO)cc1` (stereo not drawn) [Example 221, 4-{[4-(2-Butynyloxy)phenyl]sulfonyl}-N-3-hydroxy-N-1-(4-methoxyphenyl)-1,3-piperazinedicarboxamide], the inhibition at 3 µM stood at 58%. For the compound `CC#CCOc1ccc(S(=O)(=O)N2CCN(C(=O)Nc3ccc(F)cc3)CC2C(=O)NO)cc1` (stereo not drawn) [Example 222, 4-{[4-(2-Butynyloxy)phenyl]sulfonyl}-N-1-(4-fluorophenyl)-N-3-hydroxy-1,3-piperazinedicarboxamide], the inhibition at 3 µM was found to be 61%. On to `CC#CCOc1ccc(S(=O)(=O)N2CCN(C(=O)Nc3cc(Cl)cc(Cl)c3)CC2C(=O)NO)cc1` (stereo not drawn) [Example 223, 4-{[4-(2-Butynyloxy)phenyl]sulfonyl}-N-1-(3,5-dichlorophenyl)-N-3-hydroxy-1,3-piperazinedicarboxamide], for which the inhibition at 3 µM is 42%. Under `CC#CCOc1ccc(S(=O)(=O)N2CCN(C(C)=O)CC2C(=O)NO)cc1` (stereo not drawn) [Example 224, 4-Acetyl-1-(4-but-2-ynyloxy-benzenesulfonyl)-piperazine-2-carboxylic acid hydroxyamide] stands 81%; under `CC#CCOc1ccc(S(=O)(=O)N2CCN(C(=O)CC)CC2C(=O)NO)cc1` (stereo not drawn) [Example 225, 1-(4-But-2-ynyloxy-benzenesulfonyl)-4-propionyl-piperazine-2-carboxylic acid hydroxyamide], 76%; under `CC#CCOc1ccc(S(=O)(=O)N2CCN(C(=O)OC)CC2C(=O)NO)cc1` (stereo not drawn) [Example 228, 4-(4-But-2-ynyloxy-benzenesulfonyl)-3-hydroxycarbamoyl-piperazine-1-carboxylic acid methyl ester], 81%. On to `CC#CCOc1ccc(S(=O)(=O)N2CCN(C(=O)CNC(=O)OC(C)(C)C)CC2C(=O)NO)cc1` (stereo not drawn) [Example 229, {2-[4-(4-But-2-ynyloxy-bemenesulfonyl)-3-hydroxycarbamoyl-piperazin-1-yl]-2-oxo-ethyl}-carbamic acid tert-butyl ester], for which the inhibition at 3 µM is 85%.

Regarding `CC#CCOc1ccc(S(=O)(=O)N2CCN(C(=O)CN)CC2C(=O)NO)cc1` (stereo not drawn) [Example 230, 4-Aminoacetyl-1-(4-but-2-ynyloxy-benzenesulfonyl)-piperazine-2-carboxylic acid hydroxyamide], the inhibition at 3 µM stood at 27%. On to `CC#CCOc1ccc(S(=O)(=O)N2CCN(C(=O)C3(C)COC(C)(C)OC3)CC2C(=O)NO)cc1` (stereo not drawn) [Example 231, 1-{[4-(2-Butynyloxy)phenyl]sulfonyl}-N-hydroxy-4-[(2,2,5-trimethyl-1,3-dioxan-5-yl)carbonyl)-2-piperazinecarboxamide], for which the inhibition at 3 µM was found to be 73%. `CC#CCOc1ccc(S(=O)(=O)N2CCN(C(=O)C(C)(CO)CO)CC2C(=O)NO)cc1` (stereo not drawn) [Example 232, 1-{[4-(2-Butynyloxy)phenyl]sulfonyl}-N-hydroxy-4-[3-hydroxy-2-(hydroxymethyl)-2-methylpropanoyl]-2-piperazinecarboxamide]: the inhibition at 3 µM stood at 72%.

Consider `CC#CCOc1ccc(S(=O)(=O)N2CCN(Cc3ccc(Br)cc3)CC2C(=O)NO)cc1` (stereo not drawn) [Example 233, 4-(4-Bromo-benzyl)-1-(4-but-2-ynyloxy-benzenesulfonyl)-piperazine-2-carboxylic acid hydroxyamide], for which the inhibition at 3 µM came to 33%. Consider `CC#CCOc1ccc(S(=O)(=O)N2CCSCC2C(=O)NO)cc1` (stereo not drawn) [Example 239], for which the inhibition at 3 µM was 84%.

In the case of `CC#CCOc1ccc(S(=O)(=O)N2CCSC3(CCN(Cc4ccccc4)CC3)C2C(=O)NO)cc1` (stereo not drawn) [Example 241, 9-Benzyl-4-{[4-(2-butynyloxy)phenyl]sulfonyl}-N-hydroxy-1-thia-4,9-diazaspiro[5.5]undecane-5-carboxamide], the inhibition at 3 µM came out at 94%. Under `CC#CCOc1ccc(S(=O)(=O)N2CCSC3(CCN(C)CC3)C2C(=O)NO)cc1` (stereo not drawn) [Example 242, 9-methyl-4-{[4-(2-butynyloxy)phenyl]sulfonyl}-N-hydroxy-1-thia-4,9-diazaspiro[5.5]undecane-5-carboxamide] stands 73%.
